Data published in ChEMBL document CHEMBL5506010, “Butyrylcholinesterase-Activated Near-Infrared Fluorogenic Probe for In Vivo Theranostics of Alzheimer's Disease” (J Med Chem, 2024).
Active and inactive are the calls of the source. The calls are words filed in the database; no cut-off is given here.

Assays:
[1] = Drug uptake in HEK293T cells transfected with BChE siRNA assessed as increase in fluorescence intensity by fluorescence based confocal laser scanning microscopic analysis; type: ADME, cell-based; conditions: human, hek-293t
Acetylcholinesterase [2] = biological target: T1, Acetylcholinesterase (Homo sapiens, UniProt P22303); assay: Binding affinity to AChE (unknown origin) by fluorescence analysis
T1 sequence (P22303 whole entry): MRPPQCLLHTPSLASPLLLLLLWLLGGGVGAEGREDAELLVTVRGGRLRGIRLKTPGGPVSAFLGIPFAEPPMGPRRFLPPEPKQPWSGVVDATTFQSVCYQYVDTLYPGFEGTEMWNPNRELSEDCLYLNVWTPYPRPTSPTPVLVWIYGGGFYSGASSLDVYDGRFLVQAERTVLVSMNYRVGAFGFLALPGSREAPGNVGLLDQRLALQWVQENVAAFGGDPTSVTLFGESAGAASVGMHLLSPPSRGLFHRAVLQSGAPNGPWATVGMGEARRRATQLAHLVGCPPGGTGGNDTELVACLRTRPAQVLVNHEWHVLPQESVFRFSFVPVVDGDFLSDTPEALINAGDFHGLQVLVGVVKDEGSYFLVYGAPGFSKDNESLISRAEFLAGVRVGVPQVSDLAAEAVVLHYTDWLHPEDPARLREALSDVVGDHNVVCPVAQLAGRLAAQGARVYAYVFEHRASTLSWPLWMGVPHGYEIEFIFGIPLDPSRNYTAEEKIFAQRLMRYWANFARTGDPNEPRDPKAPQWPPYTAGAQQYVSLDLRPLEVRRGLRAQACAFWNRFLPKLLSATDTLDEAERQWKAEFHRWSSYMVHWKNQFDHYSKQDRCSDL

Mus musculus [3] = assay: Antialzheimer activity in APP/PS1 transgenic AD mouse model assessed as improvement in memory administered intravenously once every 2 days for 10 times followed by morris water maze training from day 21 to 25 and measured on day 26 by Morris water maze test; type: functional, organism-based; conditions: route iv, time 26.0 day
Cholinesterase [4] = biological target: T2, Cholinesterase (Homo sapiens, UniProt P06276); assay: Binding affinity to BChE (unknown origin) in PBS assessed as red-shift in maximum absorption to 680 nm by UV/vis absorption analysis
T2 sequence (P06276 whole entry): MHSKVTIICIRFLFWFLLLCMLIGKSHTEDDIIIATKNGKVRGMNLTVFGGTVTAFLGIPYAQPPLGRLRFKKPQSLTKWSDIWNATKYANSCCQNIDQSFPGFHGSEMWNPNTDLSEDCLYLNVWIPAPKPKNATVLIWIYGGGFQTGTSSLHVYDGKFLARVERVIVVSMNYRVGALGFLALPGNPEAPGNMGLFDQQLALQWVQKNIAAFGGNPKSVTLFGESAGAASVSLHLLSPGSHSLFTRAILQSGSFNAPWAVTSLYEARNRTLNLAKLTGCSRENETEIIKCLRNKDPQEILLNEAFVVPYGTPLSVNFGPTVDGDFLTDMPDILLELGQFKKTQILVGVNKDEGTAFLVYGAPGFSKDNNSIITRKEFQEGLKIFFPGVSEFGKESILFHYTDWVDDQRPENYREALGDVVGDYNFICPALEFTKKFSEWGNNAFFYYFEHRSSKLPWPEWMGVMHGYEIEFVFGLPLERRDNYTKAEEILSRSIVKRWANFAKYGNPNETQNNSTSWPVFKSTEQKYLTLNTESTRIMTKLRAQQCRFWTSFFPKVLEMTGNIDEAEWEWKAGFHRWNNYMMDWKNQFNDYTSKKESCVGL

[5] = Selectivity ratio of fluorescence intensity for binding affinity to AChE (unknown origin) in PBS to fluorescence intensity for binding affinity to BChE (unknown origin) in PBS
[6] = Toxicity in APP/PS1 transgenic AD mouse model assessed as lung damage administered intravenously once every 2 days for 10 times and measured on day 30 by H and E staining based analysis; type: tissue-based; conditions: in vivo, iv, 720 h, time 30 day
Mus musculus [7] = assay: Antialzheimer activity in APP/PS1 transgenic AD mouse model assessed as improvement in NC scores administered intravenously once every 2 days for 10 times and measured on day 27 by Nest construction test; type: functional, organism-based; conditions: route iv, time 27.0 day
[8] = Toxicity in APP/PS1 transgenic AD mouse model assessed as kidney damage administered intravenously once every 2 days for 10 times and measured on day 30 by H and E staining based analysis; type: tissue-based; conditions: in vivo, iv, 720 h, time 30 day
[9] = Toxicity in APP/PS1 transgenic AD mouse model assessed as heart damage administered intravenously once every 2 days for 10 times and measured on day 30 by H and E staining based analysis; type: tissue-based; conditions: in vivo, iv, 720 h, time 30 day
[10] = biological target: Cholinesterase (Mus musculus) (UniProt Q03311); assay: Binding affinity to BChE in mouse HT-22 cells at 10 uM incubated for 1 hrs by fluorescence based confocal laser scanning microscopic analysis; type: cell-based
Sequence of Cholinesterase (Mus musculus) (Q03311 whole entry): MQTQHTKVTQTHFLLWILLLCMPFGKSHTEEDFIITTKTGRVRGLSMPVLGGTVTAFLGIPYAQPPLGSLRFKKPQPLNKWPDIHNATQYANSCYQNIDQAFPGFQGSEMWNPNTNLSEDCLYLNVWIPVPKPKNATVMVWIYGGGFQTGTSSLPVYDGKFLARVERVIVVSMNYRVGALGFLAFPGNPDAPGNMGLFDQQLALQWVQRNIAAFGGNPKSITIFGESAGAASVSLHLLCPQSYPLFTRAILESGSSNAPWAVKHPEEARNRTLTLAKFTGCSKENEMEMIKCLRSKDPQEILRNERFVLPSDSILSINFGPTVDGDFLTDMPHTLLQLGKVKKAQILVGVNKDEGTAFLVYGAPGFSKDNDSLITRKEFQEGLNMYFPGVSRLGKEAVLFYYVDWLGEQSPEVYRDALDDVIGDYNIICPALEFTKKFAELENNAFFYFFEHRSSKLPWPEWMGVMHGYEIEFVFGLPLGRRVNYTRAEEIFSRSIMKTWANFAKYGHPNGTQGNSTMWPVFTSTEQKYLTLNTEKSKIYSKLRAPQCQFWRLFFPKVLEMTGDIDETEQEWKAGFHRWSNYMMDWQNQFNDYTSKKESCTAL

Cholinesterase [11] = biological target: T2, Cholinesterase; assay: Binding affinity to BChE (unknown origin) in PBS assessed as Michaelis-menten constant by fluorometric method
SH-SY5Y [12] = assay: Neuroprotective activity against amyloid-beta (1 to 42)-induced cell death in human SH-SY5Y cells assessed as increase in cell survival preincubated with compound for 2 hrs followed by amyloid beta (1 to 42) addition and measured after 24 hrs by MTT assay; type: functional, cell-based; conditions: dose 10-50 µM, time 26.0 hrs
Mus musculus [13] = assay: Antialzheimer activity in APP/PS1 transgenic AD mouse model assessed as improvement in recognition index for novel objects administered intravenously once every 2 days for 10 times and measured on day 28 by Novel object recognition test; type: functional, organism-based; conditions: route iv, time 28.0 day
[14] = Drug uptake in brain of 7-month old APP/[…] transgenic AD-mouse model assessed as increase in fluorescence at 100 uM, iv measured after 1 hrs by fluorescence imaging analysis; type: ADME, organism-based; conditions: in vivo
[15] = Drug uptake in brain of 8 months old AD-mouse model assessed as increase in fluorescence at 100 uM, iv by fluorescence scanning analysis; type: ADME, organism-based; conditions: in vivo
Cholinesterase [16] = biological target: T2, Cholinesterase; assay: Binding affinity to BChE (unknown origin) in PBS assessed as maximum initial reaction rate by fluorometric method
PC-12 = assay: Binding affinity to BChE in rat PC-12 cells assessed as increase in fluorescence intensity at 10 uM incubated for 24 hrs by fluorescence based confocal laser scanning microscopic analysis; type: cell-based
Acetylcholinesterase [17] = biological target: T1, Acetylcholinesterase; assay: Inhibition of human AChE using acetylthiocholine iodide as substrate at 10 uM preincubated for 5 mins followed by substrate addition and measured immediately by Ellmans method relative to control
[18] = Stability of compound in male ICR mouse brain at 100 uM, iv measured after 24 hrs by fluorescence microplate reader; type: ADME, organism-based
Cholinesterase [19] = biological target: T2, Cholinesterase; assay: Binding affinity to BChE (unknown origin) in PBS assessed as cyan coloured appearance of compound by UV/vis absorption analysis
[20] = Toxicity in APP/PS1 transgenic AD mouse model assessed as effect on body weight administered intravenously once every 2 days for 10 times and measured on day 30; conditions: in vivo, iv, 720 h, time 30 day
SH-SY5Y [21] = assay: Neuroprotective activity against amyloid-beta (1 to 42)-induced human SH-SY5Y cells assessed as decrease in amyloid beta (1 to 42) level in cell lysate at 10 to 20 uM incubated for 24 hrs by ELISA; type: functional, cell-based; conditions: dose 10-20 µM
Cholinesterase [22] = biological target: T2, Cholinesterase; assay: Inhibition of human BChE using butyrylthiocholineiodide as substrate preincubated for 5 mins followed by substrate addition and measured immediately by Ellmans method
[23] = Drug uptake in wildtype mouse brain assessed as increase in fluorescence at 100 uM, iv by fluorescence scanning analysis; type: ADME, organism-based; conditions: in vivo
Cholinesterase [24] = biological target: T2, Cholinesterase; assay: Binding affinity to BChE in human SH-SY5Y cells at 10 uM incubated for 1 hrs by fluorescence based confocal laser scanning microscopic analysis; type: cell-based
[25] = biological target: Cholinesterase (Mus musculus) (UniProt Q03311); assay: Binding affinity to BChE in mouse HT-22 cells assessed as increase in fluorescence at 10 uM incubated for 1 hrs in presence of DCF by laser confocal imaging analysis; type: cell-based

CCN(CC)Cc1ccccc1CNC(=O)c1cccc(NC(=O)c2cccc(C(=O)NCCn3cc(CCC[N+]4=C(/C=C/C5=C6Oc7cc(OC(=O)C8CC8)ccc7C=C6CCC5)C(C)(C)c5ccccc54)nn3)c2)c1.[I-]
Drug uptake [1]: Not Active
Activity (Acetylcholinesterase [2]): inactive
Activity (Mus musculus [3]): Active
Activity (Cholinesterase [4]): Active
Selectivity ratio [5]: 22.8
Activity [6]: Non-Toxic
Activity (Mus musculus [7]): Active
Activity [8]: Non-Toxic
Activity [9]: Non-Toxic
Activity [10]: Active
Activity (Cholinesterase [11]): 12.9 µM
Activity (SH-SY5Y [12]): Dose-Dependent Effect
Activity (Mus musculus [13]): Active
Drug uptake [14]: Active
Drug uptake [15]: Active
Activity (Cholinesterase [16]): 3.02 µM/min
Activity (PC-12): Active
inhibition (Acetylcholinesterase [17]): 12.3%
Stability [18]: Unstable
Activity (Cholinesterase [19]): Active
Activity [20]: Non-Toxic
Activity (SH-SY5Y [21]): Active
IC50 (Cholinesterase [22]): 29.7 nM
Drug uptake [23]: Active
Activity (Cholinesterase [24]): Active
Activity [25]: inactive
